From paper PMC11855827, “High-Throughput Screening of Five Compound Libraries for Anthelmintic Activity and Toxicity Leads to the Discovery of Two Flavonoid Compounds” (International Journal of Molecular Sciences, 2025)
Like-named read-outs stand apart in the source and are kept apart here.

Tests used:
C. elegans [1] = assay: C. elegans motility dose-response (DR) assay; set-up: species or system Caenorhabditis elegans
[2] = test system: H. contortus susceptible strain; assay: Egg hatch inhibition (EHI), ovicidal effect; set-up: species or system Haemonchus contortus; settings: Haemonchus contortus; for inhibition at 100 µM: susceptible strain, NE = Not Effective at 100 μM, control thiabendazole 0.1 µg/mL
[3] = test system: H. contortus susceptible strain; assay: Larval migration inhibition test (LMIT); set-up: species or system Haemonchus contortus; settings: Haemonchus contortus, 24 h, L3, 100 μM, NE = Not Effective at 100 μM, control ivermectin 8.75 µg/mL
Description: Eggs and third instar larvae (L3) of H. contortus from a field strain and a resistant strain of T. circumcincta were used in the current trials. These parasitic forms were obtained from fresh feces of Merino and Churra sheep experimentally infected at the experimental farm of the Instituto de Ganadería de Montaña (IGM, CSIC, Gruyeros, León, Spain) and purified according to previously described methods. Briefly, eggs were taken from fresh feces, washed, centrifuged and floated with a saturated sodium chloride solution, then concentrated, counted and used in the assays. L3 were obtained by culturing feces at 25 °C for 13 d. L3 larvae were […] in 0.5% sodium hypochlorite solution for 10 min at room temperature and washed to avoid excess salt. After washing, they were concentrated and counted for use.
The viability of H. contortus larvae was assessed by the larval migration inhibition test (LMIT) according to previously described methods. Briefly, 700 µL aliquots containing 500–600 L3 were prepared for each compound. […] After a 24 h incubation at 28 °C, the compound was removed by three washes, leaving a final volume of 1400 µL. After the washes, three 400 µL aliquots were taken from each tube and transferred to a 96-well plate with a MultiScreen mesh filter. The plates were incubated for a further 24 h at 28 °C to allow the motile L3 to pass through the 20 µm mesh for counting. Then, the number of larvae present in each well was counted to determine percentage of larval migration for each compound: % Larval migration=number of larvae migrating in compound wells/number of larvae migrating in negative control×100
For the larvae, ivermectin at 8.75 µg/mL and DMSO 0.5% (v/v) were used as controls and at least 12 replicates were performed. […] EC50 were determined by plotting the percentage of viability of the L1 against the concentration of each compound, using the nonlinear fit analysis provided by the SigmaPlot® 10.1.

C. elegans [4] = assay: microbe, parasite or virus in culture; settings: Caenorhabditis elegans
C. elegans [5] = test system: C. elegans
[6] = test system: T. circumcincta resistant strain; assay: Egg hatch inhibition (EHI), ovicidal effect; set-up: species or system Teladorsagia circumcincta; settings: Teladorsagia circumcincta
[7] = Caenorhabditis elegans, 24 h, read-out: EC50 (μM) at 24 h, C. elegans motility, DR assay, 24 h
[8] = 0 h, read-out: Inhibition (%) 110 μM (0 h), C. elegans L4 motility, 110 μM, 0 h, mean ± SD of four experiments
[9] = 24 h, read-out: Inhibition (%) 110 μM (24 h), C. elegans L4 motility, 110 μM, 24 h, mean ± SD of four experiments
[10] = 24 h, read-out: Percentage of motility inhibition 24 h, Table S2, C. elegans SS assay, 110 μM, 24 h, averages of 4 data points
[11] = Caenorhabditis elegans, read-out: EC50 (μM) at 24 h, C. elegans motility, DR assay
[12] = 0 h, read-out: Inhibition (%) 110 μM (0 h)
[13] = 24 h, read-out: Inhibition (%) 110 μM (24 h)
[14] = Table S2, C. elegans SS assay, 110 μM, 0 h, averages of 4 data points

Row | Molecule | EC50 (C. elegans [1]; [7]) [µM] | inhibition at 100 µM [2] [%] | inhibition at 110 µM (C. elegans [4]; [8]) [%] | inhibition at 110 µM (C. elegans [4]; [9]) [%] | inhibition at 110 µM (C. elegans [4]; [10]) [%] | further results
1 | Oc1ccc(/C=C/c2cc(O)cc(O)c2)cc1 [Resveratrol] | 27.7 ± 1.5 | 0 | 82 ± 8 | 7 ± 7 | – | inhibition at 100 µM [3]: 0%
2 | NC(=O)c1ncn([C@@H]2O[C@H](CO)[C@@H](O)[C@H]2O)n1 [Ribavirin, reference compound] | > 60 | – | 91 ± 5 | 76 ± 11 | – | –
3 | N=C(N/N=C/c1ccc(Cl)cc1)N/N=C/c1ccc(Cl)cc1 [Robenidine, reference compound] | 32.3 ± 2.8 | 59.7 ± 0.7 | 93 ± 5 | 81 ± 20 | 80 | inhibition at 100 µM [3]: 3.1 ± 6.9%
4 | CC[C@@H](C(=O)[C@@H](C)[C@@H](O)[C@H](C)[C@@H]1O[C@@H]([C@@H](CC)C(=O)O)CC[C@@H]1C)[C@H]1O[C@]2(C=C[C@@H](O)[C@]3(CC[C@@](C)([C@H]4CC[C@](O)(CC)[C@H](C)O4)O3)O2)[C@H](C)C[C@@H]1C [Salinomycin, reference compound] | – | 2.8 ± 5.1 | – | – | 93 | EC50 (C. elegans [1]; [11]): 55.3 ± 1.4 µM; inhibition at 100 µM [3]: 0%; inhibition at 110 µM (C. elegans [4]; [12]): 81 ± 9%; inhibition at 110 µM (C. elegans [4]; [13]): 94 ± 1%
5 | Nc1ccc(S(=O)(=O)Nc2cnc3ccccc3n2)cc1 [Sulfaquinoxaline, reference compound] | > 60 | – | 87 ± 1 | 67 ± 6 | – | –
6 | COc1ccc2cc1Oc1ccc(cc1)C[C@H]1c3cc(c(OC)cc3CCN1C)Oc1c(OC)c(OC)cc3c1[C@H](C2)N(C)CC3 [Tetrandrine] | – | – | – | – | 16 | Percentage of motility inhibition 24 h (C. elegans [5]; 24 h, 110 µM): 12%
7 | c1ccc2[nH]c(-c3cscn3)nc2c1 [Thiabendazole, reference compound] | – | 100 | – | – | – | EC50 ([2]; egg hatching, susceptible H. contortus, nine replicates, read-out: Ovicidal Effect EC50 (μM) H. c): 0.28 ± 0.01 µM; EC50 ([6]; egg hatching, resistant T. circumcincta, nine replicates, read-out: Ovicidal Effect EC50 (μM) T. c): 1.53 ± 0.06 µM; inhibition at 100 µM ([6]; resistant strain, 100 μM, NE = Not Effective at 100 μM, control thiabendazole 0.1 µg/mL): 100%
8 | CC(C)[C@]12O[C@H]1[C@@H]1O[C@]13[C@]1(O[C@H]1C[C@H]1C4=C(CC[C@@]13C)C(=O)OC4)[C@@H]2O [Triptolide] | – | – | – | – | 71 | EC50 (C. elegans [1]; [11]): > 60 µM; inhibition at 110 µM (C. elegans [4]; [12]): 15%; inhibition at 110 µM (C. elegans [4]; [13]): 72 ± 1%
9 | Nc1ncnc2c1ncn2[C@@H]1O[C@H](CO)[C@@H](O)[C@@H]1O [Vidarabine] | – | – | – | – | 0 | Percentage of motility inhibition 0 h (C. elegans [5]; [14]): 4%
10 | COC(=O)[C@@H]1[C@H]2C[C@H]3c4[nH]c5ccccc5c4CCN3C[C@@H]2CC[C@@H]1O [Yohimbine] | – | – | – | – | – | Percentage of motility inhibition 0 h (C. elegans [5]; 0 h, 110 μM): 8%; inhibition at 110 µM (C. elegans [4]; 0 h, read-out: Percentage of motility inhibition 0 h, Table S2, C. elegans SS assay, 110 μM, 0 h, averages of 4 data points): 7%
11 | Spiramycin [reference compound] | – | – | – | – | – | EC50 (C. elegans [1]; read-out: EC50 (μM) at 24 h, C. elegans motility, DR assay): > 60 µM; Inhibition (%) 110 μM (0 h) (C. elegans [5]; C. elegans L4 motility, 110 μM, 0 h, mean ± SD of four experiments): 43 ± 42%; Inhibition (%) 110 μM (24 h) (C. elegans [5]; C. elegans L4 motility, 110 μM, 24 h, mean ± SD of four experiments): 81 ± 9%; Percentage of motility inhibition 0 h (C. elegans [5]; [14]): 42%; Percentage of motility inhibition 24 h (C. elegans [5]; Table S2, C. elegans SS assay, 110 μM, 24 h, averages of 4 data points): 80%
